Data as given in patent publication US20230114728A1 (Venatorx Pharmaceuticals, Inc., priority 2019, published 2023).
Values after ≈ are worked out from the molar mass of the structure shown.

Assays:
Assay in all cases: Broth microdilution MIC in iron-depleted CAMHB (IDM)
Format in all cases: cell-based
[1] = test system: P. aeruginosa CDC-0054 producing VIM-4, OXA-50, and PAO; conditions: Pseudomonas aeruginosa, read-out: Minimum Inhibitory Concentration, P. aeruginosa CDC-0054
Description: (§1) Example IV: In Vitro Antibacterial Assays in Iron-Depleted Cation-Adjusted Mueller-Hinton Broth
(§2) To determine the ability of test compounds to inhibit the growth bacterial strains under conditions of iron-depletion, classic cell based broth microdilution minimum inhibitory concentration (MIC) assays were employed. MIC assays are performed according to CLSI methods except where otherwise noted (CLSI, 2018 and CLSI, 2019). The reference type strain E. coli ATCC 25922 was used to determine the ability of the PBP inhibitors to inhibit the growth of Enterobacteriaceae. Wild-type P. aeruginosa ATCC 27853, A. baumannii ATCC 17978 and A. baumannii ATCC 19606, along with the hyper-permeable P. aeruginosa ATCC 35151, an engineered efflux pump-compromised strain of P. aeruginosa (ΔmexAB-oprM), and an engineered efflux-pump compromised strain of A. baumannii IL123 (ABΔ3-ARAEcPore) were used to determine the ability of PBP inhibitors to penetrate the outer membrane of P. aeruginosa and A. baumannii and assess antibacterial activity against these important gram-negative organisms.
(§3) Briefly, cryo-preserved bacterial cultures of challenge strains are streaked for isolation on appropriate agar medium, in this case cation-adjusted Mueller Hinton agar. Following incubation to allow growth of the colonies, plates are sealed with parafilm and stored refrigerated for up to two weeks. For preparation of assay inoculum and to ensure low variability, at least 5 colonies are picked from the agar plates with an inoculating loop and aseptically transferred to a culture tube containing 3 mL of iron-depleted cation-adjusted Mueller Hinton broth (IDM)—see below for IDM preparation. The broth culture is grown for 3-5 hours at 37° C. with shaking at 200 rpm. Meanwhile, 2-fold serial dilutions of test compounds are conducted in a 96-well plate with a final volume of 75 μL per well at 2-fold the final desired concentration. After the dilution plates are set up the growing cultures are then diluted in a cuvette containing IDM and the optical density is measured at 600 nm. The inoculum is diluted such that 75 μL of this culture in IDM results in a starting bacterial concentration of 2-8×10^5 CFU/mL when added to the dilution plates. The plates are incubated for 16-20 hours for Enterobacteriaceae and Pseudomonas and 20-24 hours for Acinetobacter at 37° C. The MIC values are read visually as the lowest concentration well with no bacterial growth.
(§4) Method for Iron-Depleted Cation-Adjusted Mueller Hinton Broth (IDM) Preparation:
(§5) • Prepare cation-adjusted Mueller Hinton broth as per the manufacturer's recommendations and autoclave. • Add 100 g/L Chelex 100 resin, cover with foil and incubate with stirring for 2 hours • Remove Chelex 100 resin by filtration with 0.45 μm filter flask • Add the following back to the medium: • CaCl2 dihydrate: 82.5 mg/L • MgCl2 hexahydrate: 94.1 mg/L • ZnSO4: 10 μM • Adjust pH of medium to 7.3 with 5 N HCl • Sterilize using a 0.22 µm filter flask

[2] = test system: P. aeruginosa (ΔmexAB-oprM); conditions: Pseudomonas aeruginosa, read-out: Minimum Inhibitory Concentration, P. aeruginosa ΔmexAB-OprM
Description: as §1, §2, §3, §4, §5

[3] = test system: A. baumannii CDC-0036 OXA-65, and OXA-24; conditions: Acinetobacter baumannii, read-out: Minimum Inhibitory Concentration, CDC-0036
Description: as §1, §2, §3, §4, §5

A. baumannii ATCC 19606 = conditions: Acinetobacter baumannii, ATCC19606, read-out: Minimum Inhibitory Concentration, ATCC 19606
Description: as §1, §2, §3, §4, §5

A. baumannii ATCC 17978 = conditions: Acinetobacter baumannii, ATCC17978, read-out: Minimum Inhibitory Concentration, ATCC 17978
Description: as §1, §2, §3, §4, §5

[4] = test system: A. baumannii CDC-0083 producing NDM-1, PER-7, OXA-23, and OXA-69; conditions: Acinetobacter baumannii, read-out: Minimum Inhibitory Concentration, CDC-0083
Description: as §1, §2, §3, §4, §5

[5] = test system: P. aeruginosa CDC-0095 producing OXA-50, and PAO; conditions: Pseudomonas aeruginosa, read-out: Minimum Inhibitory Concentration, P. aeruginosa CDC-0095
Description: as §1, §2, §3, §4, §5

[6] = test system: A. baumannii CDC-0033 producing NDM-1, and OXA-94; conditions: Acinetobacter baumannii, read-out: Minimum Inhibitory Concentration, CDC-0033
Description: as §1, §2, §3, §4, §5

P. aeruginosa ATCC 27853 = conditions: Pseudomonas aeruginosa, ATCC27853, read-out: Minimum Inhibitory Concentration, P. aeruginosa ATCC 27853
Description: as §1, §2, §3, §4, §5

P. aeruginosa ATCC 35151 = conditions: Pseudomonas aeruginosa, ATCC35151; iron-depleted MHB (IDM); hyper-permeable strain; read-out: Minimum Inhibitory Concentration, P. aeruginosa ATCC 35151
Description: as §1, §2, §3, §4, §5

[7] = test system: P. aeruginosa CDC-0090 producing KPC-5, OXA-50, and PAO; conditions: Pseudomonas aeruginosa, read-out: Minimum Inhibitory Concentration, P. aeruginosa CDC-0090
Description: as §1, §2, §3, §4, §5

| Structure (SMILES) | MIC [1] [mg/L] | MIC [2] [mg/L] | MIC [3] [mg/L] | MIC (A. baumannii ATCC 19606) [mg/L] | MIC (A. baumannii ATCC 17978) [mg/L] | MIC [4] [mg/L] | MIC [5] [mg/L] | MIC [6] [mg/L] | MIC (P. aeruginosa ATCC 27853) [mg/L] | MIC (P. aeruginosa ATCC 35151) [mg/L] | MIC [7] [mg/L] |
| --- | --- | --- | --- | --- | --- | --- | --- | --- | --- | --- | --- |
| O=C(O)c1ccc(C(NC(=O)c2c(F)cc(O)c(O)c2Cl)C(=O)N[C@H]2Cc3ccc(F)c(C(=O)O)c3OB2O)cc1F (stereo partly drawn) [Example 71, (3R)-3-(2-(4-carboxy-3-fluorophenyl)-2-(2-chloro-6-fluoro-3,4-dihydroxybenzamido)acetamido)-7-fluoro-2-hydroxy-3,4-dihydro-2H-benzo[e][1,2]oxaborinine-8-carboxylic acid] | 0.5 to 1 (≈ 0.821 to 1.64 µM) | 0.25 (≈ 0.411 µM) | 32 to 64 (≈ 52.6 to 105 µM) | 32 to 64 (≈ 52.6 to 105 µM) | 32 to 64 (≈ 52.6 to 105 µM) | 32 to 64 (≈ 52.6 to 105 µM) | 0.5 to 1 (≈ 0.821 to 1.64 µM) | 32 to 64 (≈ 52.6 to 105 µM) | 0.5 to 1 (≈ 0.821 to 1.64 µM) | 0.25 (≈ 0.411 µM) | 2 to 4 (≈ 3.29 to 6.57 µM) |
| NCCCN1CCN(C(=O)N[C@@H](C(=O)N[C@H]2Cc3ccc(F)c(C(=O)O)c3OB2O)c2c(F)cc(O)c(O)c2Cl)C(=O)C1=O (single isomer, unassigned) [Example 27] | 0.25 (≈ 0.391 µM) | 0.25 (≈ 0.391 µM) | 2 to 4 (≈ 3.13 to 6.25 µM) | 0.25 (≈ 0.391 µM) | 0.25 (≈ 0.391 µM) | 0.25 (≈ 0.391 µM) | 8 to 16 (≈ 12.5 to 25 µM) | 0.5 to 1 (≈ 0.782 to 1.56 µM) | 0.5 to 1 (≈ 0.782 to 1.56 µM) | 0.25 (≈ 0.391 µM) | 0.25 (≈ 0.391 µM) |
| O=C(O)c1ccc(C(NC(=O)N2CCN(CCNC(=O)c3ccc(O)c(O)c3Cl)C(=O)C2=O)C(=O)N[C@H]2Cc3ccc(F)c(C(=O)O)c3OB2O)cc1F (stereo partly drawn) [Example 11, (3R)-3-(2-(4-carboxy-3-fluorophenyl)-2-(4-(2-(2-chloro-3,4-dihydroxybenzamido)ethyl)-2,3-dioxopiperazine-1-carboxamido)acetamido)-7-fluoro-2-hydroxy-3,4-dihydro-2H-benzo[e][1,2]oxaborinine-8-carboxylic acid] |  | 0.5 to 1 (≈ 0.646 to 1.29 µM) |  | > 128 |  |  |  |  | 2 to 4 (≈ 2.58 to 5.17 µM) | 0.25 (≈ 0.323 µM) |  |
| NCCN1CCN(C(=O)N[C@@H](C(=O)N[C@H]2Cc3ccc(F)c(C(=O)O)c3OB2O)c2c(F)cc(O)c(O)c2Cl)C(=O)C1=O (single isomer, unassigned) [Example 26] | 0.5 to 1 (≈ 0.799 to 1.6 µM) | 0.25 (≈ 0.4 µM) | 8 to 16 (≈ 12.8 to 25.6 µM) | 0.5 to 1 (≈ 0.799 to 1.6 µM) | 0.25 (≈ 0.4 µM) | 0.25 (≈ 0.4 µM) | 32 to 64 (≈ 51.1 to 102 µM) | 2 to 4 (≈ 3.2 to 6.39 µM) | 0.5 to 1 (≈ 0.799 to 1.6 µM) | 0.25 (≈ 0.4 µM) | 0.25 (≈ 0.4 µM) |
| NC(C(=O)N[C@H]1Cc2ccc(F)c(C(=O)O)c2OB1O)c1c(F)cc(O)c(O)c1Cl (stereo partly drawn) [Example 25, (3R)-3-(2-amino-2-(2-chloro-6-fluoro-3,4-dihydroxyphenyl)acetamido)-7-fluoro-2-hydroxy-3,4-dihydro-2H-benzo[e][1,2]oxaborinine-8-carboxylic acid] | 32 to 64 (≈ 72.3 to 145 µM) | 32 to 64 (≈ 72.3 to 145 µM) | 32 to 64 (≈ 72.3 to 145 µM) | 32 to 64 (≈ 72.3 to 145 µM) | 32 to 64 (≈ 72.3 to 145 µM) | 32 to 64 (≈ 72.3 to 145 µM) | 32 to 64 (≈ 72.3 to 145 µM) | 32 to 64 (≈ 72.3 to 145 µM) | 32 to 64 (≈ 72.3 to 145 µM) | 8 to 16 (≈ 18.1 to 36.2 µM) | 32 to 64 (≈ 72.3 to 145 µM) |
